From patent publication US11116778B2, “Prodrugs of ALOX-15 inhibitors and methods of using the same” (EMPIRICO INC., priority 2019, dated 2021)

Target: T1, 15-lipoxygenase (Oryctolagus cuniculus, UniProt P12530)
T1 construct: Animals were then euthanized and nasal mucosa was collected; tissue Covance; host or cells: nasal mucosa of NZW rabbits
T1 sequence (P12530 1-663): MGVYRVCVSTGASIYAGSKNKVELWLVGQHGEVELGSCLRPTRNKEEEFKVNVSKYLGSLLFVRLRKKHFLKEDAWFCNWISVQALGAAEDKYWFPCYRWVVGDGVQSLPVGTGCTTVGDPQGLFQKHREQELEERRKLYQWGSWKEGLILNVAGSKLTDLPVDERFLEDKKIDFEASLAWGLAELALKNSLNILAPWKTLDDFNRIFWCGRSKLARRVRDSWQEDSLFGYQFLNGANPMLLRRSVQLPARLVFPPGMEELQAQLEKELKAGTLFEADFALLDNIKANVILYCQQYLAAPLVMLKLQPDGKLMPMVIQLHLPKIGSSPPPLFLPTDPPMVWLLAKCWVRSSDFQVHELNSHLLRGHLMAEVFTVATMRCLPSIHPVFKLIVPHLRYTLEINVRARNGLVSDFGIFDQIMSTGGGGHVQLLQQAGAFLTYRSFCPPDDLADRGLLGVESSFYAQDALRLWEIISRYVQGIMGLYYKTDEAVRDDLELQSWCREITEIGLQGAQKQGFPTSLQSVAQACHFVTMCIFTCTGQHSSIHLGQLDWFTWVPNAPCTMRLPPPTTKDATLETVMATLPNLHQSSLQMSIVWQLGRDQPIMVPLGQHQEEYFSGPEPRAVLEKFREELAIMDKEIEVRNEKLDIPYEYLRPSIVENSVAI
Assay: 15-HETE levels in rabbit nasal mucosa after nasal administration of compound 5 (IL4/IL13 inflammation model)
Type: in vivo
Settings: rostral and caudal regions
Method: Six (6) female NZW rabbits were employed in this study. Rabbits were obtained from Covance (Denver Pa.). Rabbits were between approximately 10 and 12 months of age at the time of study start. At time point 0, all animals received 50 μL of solution containing rabbit IL4 (RND Systems/Biotechne) and human IL13 (PreproTech) at a concentration of 0.25 mg/mL each in 0.5×PBS containing 12.5 mg/mL BSA per nostril. This was administered intranasally via a venous catheter attached to a micropipette. The animal was positioned in a supine manner and the venous catheter inserted into the nostril. The volume was introduced into the nasal cavity and the same procedure was repeated with the other nostril.
At the 2, 4, and 6 hour time points, animals in Group 1 (n=3) received 0.2 mL of vehicle (0.9% saline) per nostril and the animals in Group 2 (n=3) received 0.2 mL of compound 5 (10 mM) in vehicle per nostril. […]
Nasal lavage and serum samples were analyzed for the levels of compound 3 and compound 5. […] Compound 3 was quantified using LC-MS/MS (QTrap5500, Applied Biosystems). […] Compound 5 was quantified using LC-MS/MS (QTrap5500, Applied Biosystems). […]

Structure (SMILES): O=C(Nc1ccc(F)cc1Cl)c1nn(COP(=O)(O)O)c(Cl)c1Cl [compound 5, (4,5-dichloro-3-((2-chloro-4-fluorophenyl)carbamoyl)-1H-pyrazol-1-yl)methyl dihydrogen phosphate]
- mean 15-HETE levels in nasal mucosa versus vehicle (FIG. 9) (rabbits, IL4/IL13 intranasal, compound 5 10 mM 0.2 mL per nostril at 2, 4, 6 hours): lower
- mean esterified 15-HETE levels in nasal mucosa versus vehicle (FIG. 10) (total after NaOH hydrolysis minus free 15-HETE): lower
